Assay results taken from the NIST ThermoML archive (doi:10.1016/j.jct.2017.09.022).

Settings: 101.33 kPa, Crystal, Small (less than 1 g) adiabatic calorimetry

C[C@@H](O)[C@H](N)C(=O)O [L-threonine]
Settings	molar entropy [J/K/mol]
5 K	0.02162
10 K	0.1746
15 K	0.6735
20 K	1.713
25 K	3.326
30 K	5.488
35 K	8.065
40 K	10.89
45 K	13.89
50 K	17.13
60 K	23.7
70 K	30.6
80 K	37.33
90 K	43.98
100 K	50.55
110 K	57.04
120 K	63.44
130 K	69.68
140 K	75.91
150 K	82.06
160 K	88.05
170 K	93.95
180 K	99.86
190 K	105.59
200 K	111.33
210 K	116.9
220 K	122.47
230 K	128.04
240 K	133.45
250 K	138.85
260 K	144.26
270 K	149.58
280 K	154.82
290 K	160.14
298.15 K	164.38
300 K	165.29
310 K	170.53
320 K	175.6
330 K	180.67
340 K	185.75
350 K	190.73
360 K	195.72
370 K	200.71
